Values quoted from earlier work as cited in patent US11253533B1, “Water dissolvable macrocyclic lactone cyclodextrin complexes” (MOUNTAIN VALLEY MD INC, priority 2020, dated 2022).

CC[C@H](C)[C@H]1O[C@]2(CC[C@@H]1C)C[C@@H]1C[C@@H](C/C=C(\C)[C@@H](O[C@H]3C[C@H](OC)[C@@H](O[C@H]4C[C@H](OC)[C@@H](O)[C@H](C)O4)[C@H](C)O3)[C@@H](C)/C=C/C=C3\CO[C@@H]4[C@H](O)C(C)=C[C@@H](C(=O)O1)[C@]34O)O2 [Ivermectin, (1R,4S,5'S,6R,6′R,8R,10E,12S,13S,14E,16E,20R,21R,24S)-6′-[(2S)-butan-2-yl]-21,24-dihydroxy-12-[(2R,4S,5S,6S)-5-[(2S,4S,5S,6S)-5-hydroxy-4-methoxy-6-methyloxan-2-yl]oxy-4-methoxy-6-methyloxan-2-yl]oxy-5′,11,13,22-tetramethylspiro[3,7,19-trioxatetracyclo[15.6.1.14,8.020,24]pentacosa-10,14,16,22-tetraene-6,2′-oxane]-2-one]
maximum concentration of ivermectin (FR 3042412, without an organic solvent): 2 mg per millileter of water
solubility of Ivermectin (U.S. Pat. No. 4,389,397, with organic solvents, no cyclodextrin): 7%
solubility in water (at 25 degrees Celsius): about 0.005 mg per ml
